# Patent publication US20090155209A1, “NOVEL MACROCYCLIC INHIBITORS OF HEPATITIS C VIRUS REPLICATION” (priority 2007, published 2009)
# “And” between values parts separate entries of the source, which are not always exact repeats. Equal entries are not always repeated. Where two headings read alike, the source gives them in different places.
# Assays:
# [1] = Compartmental PK model fitted to plasma data of the 400 mg fed cohort; type: in vivo, healthy volunteers (human); details: median, compartmental PK parameter
# Method: The compartmental model was constructed to fit the PK data from the 400 mg, fed cohort only. Candidate PK models were fit to plasma data using weighted, non-linear regression implemented in Adapt 5. (1, 2) Each subjects' data were fit separately for a total of 10 fitted profiles. Model discrimination was accomplished according to the “Rule of Parsimony” based on Akaike's Information Criterion. (3, 4)
# The most robust fit to the data was obtained using a three-compartment model (one absorptive, two distributive) with first order absorption and elimination. […] No a priori assumptions regarding the number of phases were made; the fit of the observed data and the AIC were used to guide the selection of a one, two, or three-phase absorption.
# [2] = tested on: HCV; assay: EC90 (viral sensitivity); type: cell-based, hepatitis C virus (HCV); details: Hepatitis C virus
# [3] = Simulated steady-state plasma and liver profiles: predicted AUC0-24, Cavg, % Time>EC90, Ctrough,liver/EC90; parameters: species or system human; details: 8 or 12 hour dose interval
# Excerpt: Fitted parameters were used to compute predicted steady-state AUC0-24 and integrated average steady-state concentrations (Cavg) in plasma and in liver. Three hypothetical liver to plasma ratios (LPR) were considered given the variability seen in various animal species: 8 to 1, 30 to 1, and 100 to 1. The LPR seen in rats was approximately 8:1, LPR in dogs was approximately 25-40:1 and LPR in monkeys was approximately 80-125:1.
# Using ADAPT 5, simulated plasma profiles were generated using individual subject fitted parameters and two different dosing regimens, 800 mg Q12H and 500 mg Q8H, dosed to steady-state.
# By simulating plasma concentration profiles at steady-state, it is possible to predict ITMN-191 concentrations in liver and then index these to viral sensitivity. Summary statistics for the percentage of a dosing interval for which predicted liver concentrations remain above the EC90 (% Time>EC90) and the ratio of predicted trough concentration in the liver to the EC90 (Ctrough, liver/EC90) are provided in Table 12.
# [4] = Single ascending dose study, fasted and fed: safety and non-compartmental plasma PK; type: in vivo, healthy volunteers (human); details: for AUC0-inf / Cmax / half-life / Tmax: human, plasma, oral; for Tmax: read-out: Tmax
# Method: A single ascending dose (SAD) study of the compound 100 was conducted in healthy volunteers. The compound 100 was administered as monotherapy both with and without food. The safety and pharmacokinetic profile of the single dose of the compound 100 was assessed.
# Interim, blinded data were used for Pharmacokinetic (PK) study relating to food effects. With the exception of the 400 mg cohort, eight subjects were studied at each dose (single doses of 100, 200, or 800 mg of the sodium salt of the compound 100, which may be referred to herein as ITMN-191, administered in the fasting state). In the 400 mg cohort, ten subjects received single 400 mg doses of ITMN-191 under both fasted and fed conditions with a 5-day washout period between dosing. In the 100 mg cohort, subjects were sampled within 1 hour before dosing and at 0.5, 1, 1.5, 2, 2.5, 3, 4, 6, 8, 12, 18, 24, 32 and 48 hours after dosing. For subsequent cohorts, subjects were sampled within 1 hour before dosing and at 0.25, 0.5, 1, 1.5, 2, 2.5, 3, 4, 6, 8, 12, 18, 24, and 32 hours after dosing. Nominal (not actual) sampling times were used for the analysis. PK samples were analyzed using liquid chromatography-tandem mass spectrometry (LC/MS/MS with API 4000 mass spectrometer) following solid-phase extraction. The upper and lower limits of quantitation (ULOQ and LLOQ) are 100 and 0.01 ng/mL, respectively.
# Pharmacokinetic parameter estimates were calculated using non-compartmental methods (implemented using Microsoft Excel®). Half-lives were determined by visual inspection of the log concentration-time plots to choose the terminal phase (minimum of three detectable observations). Using linear regression of the chosen terminal phase observations, elimination rate constants were calculated as the negative slope of the regression line and half-life as the natural log of 2 divided by the elimination rate constant.
# Ten subjects received single 1600 mg doses of ITMN-191 under both fasted and fed conditions with a 5-day washout period between dosing. For each condition, subjects were sampled within 1 hour before dosing and at 0.25, 0.5, 1, 1.5, 2, 2.5, 3, 4, 6, 8, 12, 18, 24, and 32 hours after dosing. Pharmacokinetic parameter estimates were calculated using non-compartmental methods. Half-life (t1/2) was determined by visual inspection of the log concentration-time plots to choose the terminal phase (minimum of three detectable observations). Using linear regression of the chosen terminal phase observations, elimination rate constants were calculated as the negative slope and half-life as the natural log of 2 divided by the elimination rate constant.
compound,measurement,setting,value
CC(C)(C)OC(=O)N[C@H]1CCCCC/C=C\[C@@H]2C[C@@]2(C(=O)NS(=O)(=O)C2CC2)NC(=O)[C@@H]2C[C@@H](OC(=O)N3Cc4cccc(F)c4C3)CN2C1=O [ITMN-191],half-life,"[1]; human, plasma, oral, n = 10, read-out: T1/2,λz (converted)",1.53 h
same,Vd/F,"[1]; human, plasma, oral, n = 10, read-out: Vss/F",2950 L
same,CLt/F,[1]; n = 10,3800 L/h
same,Vc/F,[1]; n = 10,1975 L
same,EC90,[2],14.1 nM and 0.0106 µg/mL
same,accumulation associated with multiple doses,[3],negligible
same,fold increase of median AUC0-inf and Cmax,[4]; 1600 mg fasted versus 800 mg cohort,3-4 fold
same,dose linearity of pharmacokinetics based on AUC0-inf,[4]; dose range of 100-800 mg,linear
same,AUC0-inf,"[4]; 100 mg, median, single 100 mg dose, fasting state, N=8, read-out: AUC0-inf",20.4 ng·h/mL
same,Cmax,"[4]; 100 mg, median, single 100 mg dose, fasting state, N=8, read-out: Cmax",14.7 ng/mL
same,half-life,"[4]; 100 mg, median, single 100 mg dose, fasting state, N=8, read-out: T1/2 (converted)",1.78 h
same,Tmax,"[4]; 100 mg, median, single 100 mg dose, fasting state, N=8",0.75 h
same,AUC0-inf,"[4]; 200 mg, median, single 200 mg dose, fasting state, N=8, read-out: AUC0-inf",36.8 ng·h/mL
same,Cmax,"[4]; 200 mg, median, single 200 mg dose, fasting state, N=8, read-out: Cmax",30.2 ng/mL
same,half-life,"[4]; 200 mg, median, single 200 mg dose, fasting state, N=8, read-out: T1/2 (converted)",1.49 h
same,Tmax,"[4]; 200 mg, median, single 200 mg dose, fasting state, N=8",0.75 h
same,AUC0-inf,"[4]; 400 mg, median, single 400 mg dose (Fasted), N=10, read-out: AUC0-inf",81 ng·h/mL
same,Cmax,"[4]; 400 mg, median, single 400 mg dose (Fasted), N=10, read-out: Cmax",63.8 ng/mL
same,half-life,"[4]; 400 mg, median, single 400 mg dose (Fasted), N=10, read-out: T1/2 (converted)",1.53 h
same,Tmax,"[4]; 400 mg, median, single 400 mg dose (Fasted), N=10",1 h
same,AUC0-inf,"[4]; 400 mg, median, single 400 mg dose (Fed), N=10, read-out: AUC0-inf",113 ng·h/mL
same,Cmax,"[4]; 400 mg, median, single 400 mg dose (Fed), N=10, read-out: Cmax",56.6 ng/mL
same,half-life,"[4]; 400 mg, median, single 400 mg dose (Fed), N=10, read-out: T1/2 (converted)",1.74 h
same,Tmax,"[4]; 400 mg, median, single 400 mg dose (Fed), N=10",2.5 h
same,AUC0-inf,"[4]; 800 mg, 800 mg cohort, fasting, single dose, read-out: median AUC0-inf",194 ng·h/mL
same,Cmax,"[4]; 800 mg, 800 mg cohort, fasting, single dose, read-out: median Cmax",216 ng/mL
same,AUC0-inf,"[4]; 800 mg, median, single 800 mg dose, fasting state, N=8, read-out: AUC0-inf",194 ng·h/mL
same,Cmax,"[4]; 800 mg, median, single 800 mg dose, fasting state, N=8, read-out: Cmax",216 ng/mL
same,half-life,"[4]; 800 mg, median, single 800 mg dose, fasting state, N=8, read-out: T1/2 (converted)",1.91 h
same,Tmax,"[4]; 800 mg, median, single 800 mg dose, fasting state, N=8",0.5 h
same,AUC0-inf,"[4]; 1600 mg, 1600 mg fasted cohort, single dose, read-out: median AUC0-inf",737 ng·h/mL
same,Cmax,"[4]; 1600 mg, 1600 mg fasted cohort, single dose, read-out: median Cmax",685 ng/mL
same,AUC0-inf,"[4]; 1600 mg, Geometric Mean of 10 subjects, single 1600 mg dose, Fasted, read-out: AUC0-inf",667 ng·h/mL
same,Cmax,"[4]; 1600 mg, Geometric Mean of 10 subjects, single 1600 mg dose, Fasted, read-out: Cmax",538 ng/mL
same,half-life,"[4]; 1600 mg, Geometric Mean of 10 subjects, single 1600 mg dose, Fasted, read-out: t½ (converted)",2.38 h
